Data: US20230227435A1, “SMALL MOLECULE MODULATORS OF IL-17” (LEO PHARMA A/S, priority 2020, published 2023)

biological target: T1, human IL-17AA (Homo sapiens, UniProt Q16552); test: IL-8 release assay in human epithelial keratinocytes adult (HEKa); type: cell-based; conditions: HEKa cells; 3 ng/mL HEK-human IL-17AA + 10 ng/mL human TNFalpha; 68-72 hours; IL-8 by HTRF
T1 construct: host or cells: HEK (human embryonic kidney) cells
T1 sequence (Q16552 24-155) 1: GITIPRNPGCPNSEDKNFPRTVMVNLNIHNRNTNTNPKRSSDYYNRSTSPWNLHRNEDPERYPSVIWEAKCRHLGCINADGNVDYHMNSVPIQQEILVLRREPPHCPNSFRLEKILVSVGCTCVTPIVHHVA
T1 sequence (Q16552 24-155) 2: T1 sequence (Q16552 24-155) 1
Protocol: Example 8: IL-8 Release Assay in Human Epithelial Keratinocytes Adult (HEKa)
Keratinocytes were seeded at 3500 cells/well in 384-well ViewPlates (Perkin Elmer) in Epilife medium (Thermo Fisher) containing human keratinocyte growth supplement (HKGS) without hydrocortisone and incubated in a humid incubator at 37° C., 5% CO2, overnight. The following day growth medium was removed and 25 μl fresh Epilife medium was added. 75 nL test compound in100% DMSO was added into each well reserved for test compounds, by the use of acoustic pipetting. The remaining wells received an equal volume of DMSO only, as vehicle control, or terfenadine in DMSO, as a positive control for any cytotoxic compounds. Subsequently, another 25 μL Epilife medium was added to each well. Finally, wells containing test compounds and wells prepared to yield maximum stimulation received 25 μL of 9 ng/mL recombinant, human embryonic kidney cell (HEK)-derived human IL-17AA+30 ng/mL human TNF-alpha, in Epilife medium. Wells prepared to define 100% inhibition of IL-17 effects received 25 μL of 30 ng/mL human TNF-alpha alone, in Epilife medium. Final concentrations were 3 ng/mL HEK-human IL-17AA+10 ng/mL human TNFalpha (maximum stimulation) and 10 ng/mL human TNFalpha alone (100% inhibition, Emax), respectively. Cells were incubated for 68-72 hours in the incubator. IL-8 released from the cells was measured by the use of a commercial homogenous time-resolved fluorescence (HTRF) assay (CisBio). 2 μL cell culture supernatant was transferred to a 384-well Proxiplate. 5 μL HTRF reagent was added and the plates were incubated sealed in the dark for 3-22 hours at room temperature. Time-resolved fluorescence was read at 665 vs 620 nm, with excitation at 320 nm, and IL-8 levels were calculated as percent of controls. Reduction of the amount of secreted IL-8 indicates decreased IL-17 signaling. Concentration response curves were fitted by the use of a four-parameter logistic equation. Relative IC50 and Emax were reported from curves showing acceptable fit (r^2>0.9). Cytotoxicity was measured in the cell-containing Viewplates following addition of 7 μL PrestoBlue (Thermo Fisher) and incubation for 2.5-3 hours at room temperature, by measuring fluorescence at 615 nm (excitation at 535 nm). Fluorescence was directly proportional to the amount of metabolic activity. Reduction of fluorescence signal indicated cytotoxicity.
Compounds of the present invention were tested in the IL-8 release assay in human epithelial keratinocytes.

Rel EC50 IL-8 release assay	SMILES
no	Cc1cn(C)nc1-c1nnc(C(C(=O)Nc2ccc(-c3c(C)n[nH]c3C)cc2)C(C2CC2)C2CC2)[nH]1 (stereo not drawn) [Example 46, 3,3-dicyclopropyl-N-[4-(3,5-dimethyl-1H-pyrazol-4-yl)phenyl]-2-[5-(1,4-dimethylpyrazol-3-yl)-4H-1,2,4-triazol-3-yl]propanamide]

same assay, conditions: HEKa cells; 3 ng/mL HEK-human IL-17AA + 10 ng/mL human TNFalpha; 68-72 hours; IL-8 by HTRF; read-out: Rel EC50 IL-8 release assay

SMILES	EC50
COc1ncccc1-c1nnc(C(C(=O)Nc2ccc(-c3c(C)n[nH]c3C)cc2)C(C2CC2)C2CC2)[nH]1 (stereo not drawn) [Example 49, 3,3-dicyclopropyl-N-[4-(3,5-dimethyl-1H-pyrazol-4-yl)phenyl]-2-[5-(2-methoxy-3-pyridyl)-4H-1,2,4-triazol-3-yl]propanamide]	460 nM
CCOc1cc(-c2nnc(C(C(=O)Nc3ccc(-c4c(C)n[nH]c4C)cc3)C(C3CC3)C3CC3)[nH]2)ccn1 (stereo not drawn) [Example 51, 3,3-dicyclopropyl-N-[4-(3,5-dimethyl-1H-pyrazol-4-yl)phenyl]-2-[5-(2-ethoxy-4-pyridyl)-4H-1,2,4-triazol-3-yl]propanamide]	100 nM
Cc1n[nH]c(C)c1-c1ccc(NC(=O)C(c2nnc(-c3ccnc(C(F)(F)F)c3)[nH]2)C(C2CC2)C2CC2)cc1 (stereo not drawn) [Example 54, 3,3-dicyclopropyl-N-[4-(3,5-dimethyl-1H-pyrazol-4-yl)phenyl]-2-[5-[2-(trifluoromethyl)-4-pyridyl]-4H-1,2,4-triazol-3-yl]propanamide]	76 nM
Cc1n[nH]c(C)c1-c1ccc(NC(=O)C(c2nnc(-c3ccnc(C(F)F)c3)[nH]2)C(C2CC2)C2CC2)cc1 (stereo not drawn) [Example 55, 3,3-dicyclopropyl-2-[5-[2-(difluoromethyl)-4-pyridyl]-4H-1,2,4-triazol-3-yl]-N-[4-(3,5-dimethyl-1H-pyrazol-4-yl)phenyl]propanamide]	27 nM
Cc1n[nH]c(C)c1-c1ccc(NC(=O)C(c2nnc(-c3ccnn3CCCO)[nH]2)C(C2CC2)C2CC2)cc1 (stereo not drawn) [Example 57, 3,3-dicyclopropyl-N-[4-(3,5-dimethyl-1H-pyrazol-4-yl)phenyl]-2-[5-[2-(3-hydroxypropyl)pyrazol-3-yl]-4H-1,2,4-triazol-3-yl]propanamide]	59 nM
Cc1n[nH]c(C)c1-c1ccc(NC(=O)C(c2nnc(-c3ccccn3)[nH]2)C(C2CC2)C2CC2)cc1 (stereo not drawn) [Example 58, 3,3-dicyclopropyl-N-[4-(3,5-dimethyl-1H-pyrazol-4-yl)phenyl]-2-[5-(2-pyridyl)-4H-1,2,4-triazol-3-yl]propanamide]	310 nM
Cc1n[nH]c(C)c1-c1ccc(NC(=O)C(c2nnc(C3CCOCC3)[nH]2)C(C2CC2)C2CC2)cc1 (stereo not drawn) [Example 61, 3,3-dicyclopropyl-N-[4-(3,5-dimethyl-1H-pyrazol-4-yl)phenyl]-2-(5-tetrahydropyran-4-yl-4H-1,2,4-triazol-3-yl)propanamide]	2700 nM
Cc1n[nH]c(C)c1-c1ccc(NC(=O)C(c2nnc(C3CCOC3)[nH]2)C(C2CC2)C2CC2)cc1 (stereo not drawn) [Example 62, 3,3-dicyclopropyl-N-[4-(3,5-dimethyl-1H-pyrazol-4-yl)phenyl]-2-(5-tetrahydrofuran-3-yl-4H-1,2,4-triazol-3-yl)propanamide]	1600 nM
Cc1n[nH]c(C)c1-c1ccc(NC(=O)C(c2nnc(-c3ccnc(C(F)F)c3)[nH]2)C2CCC(F)(F)CC2)cc1 (stereo not drawn) [Example 63, 2-(4,4-difluorocyclohexyl)-2-[5-[2-(difluoromethyl)-4-pyridyl]-4H-1,2,4-triazol-3-yl]-N-[4-(3,5-dimethyl-1H-pyrazol-4-yl)phenyl]acetamide]	200 nM
Cc1cc(-c2nnc(C(C(=O)Nc3ccc(-c4c(C)n[nH]c4C)cc3)C3CCC(F)(F)CC3)[nH]2)ccn1 (stereo not drawn) [Example 65, 2-(4,4-difluorocyclohexyl)-N-[4-(3,5-dimethyl-1H-pyrazol-4-yl)phenyl]-2-[5-(2-methyl-4-pyridyl)-4H-1,2,4-triazol-3-yl]acetamide]	520 nM
COc1cc(-c2nnc(C(C(=O)Nc3ccc(-c4c(C)n[nH]c4C)cc3)C3CCC(F)(F)CC3)[nH]2)ccn1 (stereo not drawn) [Example 66, 2-(4,4-difluorocyclohexyl)-N-[4-(3,5-dimethyl-1H-pyrazol-4-yl)phenyl]-2-[5-(2-methoxy-4-pyridyl)-4H-1,2,4-triazol-3-yl]acetamide]	640 nM
CCn1nccc1-c1cnc(C(C(=O)Nc2ccc(-c3c(C)n[nH]c3C)cc2)C(C2CC2)C2CC2)[nH]1 (stereo not drawn) [Example 67, 3,3-dicyclopropyl-N-[4-(3,5-dimethyl-1H-pyrazol-4-yl)phenyl]-2-[5-(2-ethylpyrazol-3-yl)-1H-imidazol-2-yl]propanamide]	210 nM
Cc1n[nH]c(C)c1-c1ccc(NC(=O)C(c2ncc(-c3ccnn3C(C)C)[nH]2)C(C2CC2)C2CC2)cc1 (stereo not drawn) [Example 68, 3,3-dicyclopropyl-N-[4-(3,5-dimethyl-1H-pyrazol-4-yl)phenyl]-2-[5-(2-isopropylpyrazol-3-yl)-1H-imidazol-2-yl]propanamide]	170 nM
COc1cc(-c2cnc(C(C(=O)Nc3ccc(-c4c(C)n[nH]c4C)cc3)C(C3CC3)C3CC3)[nH]2)ccn1 (stereo not drawn) [Example 69, 3,3-dicyclopropyl-N-[4-(3,5-dimethyl-1H-pyrazol-4-yl)phenyl]-2-[5-(2-methoxy-4-pyridyl)-1H-imidazol-2-yl]propanamide]	490 nM
Cc1n[nH]c(C)c1-c1ccc(NC(=O)C(c2nc(F)c(-c3ccccc3)[nH]2)C(C2CC2)C2CC2)cc1 (stereo not drawn) [Example 72, 3,3-dicyclopropyl-N-[4-(3,5-dimethyl-1H-pyrazol-4-yl)phenyl]-2-(4-fluoro-5-phenyl-1H-imidazol-2-yl)propanamide]	260 nM

Further lines, results first:

EC50	SMILES
83 nM	Cc1cc(-c2nnc(C(C(=O)Nc3ccc(-c4c(C)n[nH]c4C)cc3)C(C3CC3)C3CC3)[nH]2)n(C)n1 (stereo not drawn) [Example 47, 3,3-dicyclopropyl-N-[4-(3,5-dimethyl-1H-pyrazol-4-yl)phenyl]-2-[5-(2,5-dimethylpyrazol-3-yl)-4H-1,2,4-triazol-3-yl]propanamide]
130 nM	COc1cncc(-c2nnc(C(C(=O)Nc3ccc(-c4c(C)n[nH]c4C)cc3)C(C3CC3)C3CC3)[nH]2)c1 (stereo not drawn) [Example 48, 3,3-dicyclopropyl-N-[4-(3,5-dimethyl-1H-pyrazol-4-yl)phenyl]-2-[5-(5-methoxy-3-pyridyl)-4H-1,2,4-triazol-3-yl]propanamide]
110 nM	Cc1cncc(-c2nnc(C(C(=O)Nc3ccc(-c4c(C)n[nH]c4C)cc3)C(C3CC3)C3CC3)[nH]2)c1 (stereo not drawn) [Example 50, 3,3-dicyclopropyl-N-[4-(3,5-dimethyl-1H-pyrazol-4-yl)phenyl]-2-[5-(5-methyl-3-pyridyl)-4H-1,2,4-triazol-3-yl]propanamide]
180 nM	Cc1ncccc1-c1nnc(C(C(=O)Nc2ccc(-c3c(C)n[nH]c3C)cc2)C(C2CC2)C2CC2)[nH]1 (stereo not drawn) [Example 52, 3,3-dicyclopropyl-N-[4-(3,5-dimethyl-1H-pyrazol-4-yl)phenyl]-2-[5-(2-methyl-3-pyridyl)-4H-1,2,4-triazol-3-yl]propanamide]
73 nM	Cc1ccncc1-c1nnc(C(C(=O)Nc2ccc(-c3c(C)n[nH]c3C)cc2)C(C2CC2)C2CC2)[nH]1 (stereo not drawn) [Example 53, 3,3-dicyclopropyl-N-[4-(3,5-dimethyl-1H-pyrazol-4-yl)phenyl]-2-[5-(4-methyl-3-pyridyl)-4H-1,2,4-triazol-3-yl]propanamide]
320 nM	COc1ccncc1-c1nnc(C(C(=O)Nc2ccc(-c3c(C)n[nH]c3C)cc2)C(C2CC2)C2CC2)[nH]1 (stereo not drawn) [Example 56, 3,3-dicyclopropyl-N-[4-(3,5-dimethyl-1H-pyrazol-4-yl)phenyl]-2-[5-(4-methoxy-3-pyridyl)-4H-1,2,4-triazol-3-yl]propanamide]
45 nM	Cc1cccc(-c2nnc(C(C(=O)Nc3ccc(-c4c(C)n[nH]c4C)cc3)C(C3CC3)C3CC3)[nH]2)n1 (stereo not drawn) [Example 59, 3,3-dicyclopropyl-N-[4-(3,5-dimethyl-1H-pyrazol-4-yl)phenyl]-2-[5-(6-methyl-2-pyridyl)-4H-1,2,4-triazol-3-yl]propanamide]
250 nM	Cc1cccnc1-c1nnc(C(C(=O)Nc2ccc(-c3c(C)n[nH]c3C)cc2)C(C2CC2)C2CC2)[nH]1 (stereo not drawn) [Example 60, 3,3-dicyclopropyl-N-[4-(3,5-dimethyl-1H-pyrazol-4-yl)phenyl]-2-[5-(3-methyl-2-pyridyl)-4H-1,2,4-triazol-3-yl]propanamide]
